A word on the inhibition: it is the change of the read-out against control, counted positive when it falls.

Here are results for one molecule from US9492471B2, “Methods of treating a disease or disorder associated with Bruton'S Tyrosine Kinase” (Celgene Avilomics Research, Inc., priority 2013, dated 2016).

Test in all cases: HotSpot kinase profiling
Assay type in all cases: biochemical

Test [1] deals with T1, ASK1/MAP3K5 (Homo sapiens, UniProt Q99683).
T1 construct: purchased Reaction Biology Corp
T1 sequence (Q99683 1-1374): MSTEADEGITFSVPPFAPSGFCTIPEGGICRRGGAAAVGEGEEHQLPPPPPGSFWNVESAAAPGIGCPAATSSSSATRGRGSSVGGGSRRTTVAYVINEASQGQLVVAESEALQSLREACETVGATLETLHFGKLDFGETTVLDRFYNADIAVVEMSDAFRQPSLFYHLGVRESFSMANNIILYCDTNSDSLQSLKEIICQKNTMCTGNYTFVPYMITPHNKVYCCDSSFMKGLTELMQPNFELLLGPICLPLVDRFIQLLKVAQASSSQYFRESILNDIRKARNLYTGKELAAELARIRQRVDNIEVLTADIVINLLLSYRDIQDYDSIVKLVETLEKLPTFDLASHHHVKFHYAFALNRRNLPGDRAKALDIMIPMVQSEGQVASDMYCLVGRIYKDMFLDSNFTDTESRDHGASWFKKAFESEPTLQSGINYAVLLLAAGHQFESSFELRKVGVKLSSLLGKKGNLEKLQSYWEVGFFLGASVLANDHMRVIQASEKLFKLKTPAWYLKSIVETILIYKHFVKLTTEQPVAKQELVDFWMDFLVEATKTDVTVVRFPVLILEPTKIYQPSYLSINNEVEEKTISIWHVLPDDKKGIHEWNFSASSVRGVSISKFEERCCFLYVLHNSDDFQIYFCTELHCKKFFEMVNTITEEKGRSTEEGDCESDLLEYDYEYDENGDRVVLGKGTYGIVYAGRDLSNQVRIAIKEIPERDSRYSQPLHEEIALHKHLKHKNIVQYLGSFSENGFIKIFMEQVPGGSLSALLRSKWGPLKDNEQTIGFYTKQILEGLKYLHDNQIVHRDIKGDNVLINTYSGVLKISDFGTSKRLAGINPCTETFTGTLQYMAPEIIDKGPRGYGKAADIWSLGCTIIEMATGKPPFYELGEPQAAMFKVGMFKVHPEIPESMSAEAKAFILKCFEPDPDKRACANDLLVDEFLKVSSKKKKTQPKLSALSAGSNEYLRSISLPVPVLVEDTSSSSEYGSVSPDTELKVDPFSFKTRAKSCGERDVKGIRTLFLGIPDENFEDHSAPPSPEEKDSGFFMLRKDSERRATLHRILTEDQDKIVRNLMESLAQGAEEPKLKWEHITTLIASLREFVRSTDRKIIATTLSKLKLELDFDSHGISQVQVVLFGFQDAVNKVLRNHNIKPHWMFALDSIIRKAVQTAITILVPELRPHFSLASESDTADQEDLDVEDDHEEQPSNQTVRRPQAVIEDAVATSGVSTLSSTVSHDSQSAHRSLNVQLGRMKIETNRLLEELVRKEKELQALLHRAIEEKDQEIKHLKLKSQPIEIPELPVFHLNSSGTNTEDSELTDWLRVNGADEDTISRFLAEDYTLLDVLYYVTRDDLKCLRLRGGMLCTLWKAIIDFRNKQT
The essentials: (§1)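 Percent inhibition, averaged when run more than once and referenced to a DMSO negative control, came from a radioactive filter-binding readout on P81 paper. Reactions of kinase with freshly made substrate and cofactors ran for 2 h at room temperature.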

Test [2] addresses T2, IGF1R (Homo sapiens, UniProt P08069).
T2 construct: purchased Reaction Biology Corp
The method in brief:
as §1

The target of test [3] is T3, P38b/MAPK11 (Homo sapiens, UniProt Q15759).
T3 construct: purchased Reaction Biology Corp
T3 sequence (Q15759 whole entry): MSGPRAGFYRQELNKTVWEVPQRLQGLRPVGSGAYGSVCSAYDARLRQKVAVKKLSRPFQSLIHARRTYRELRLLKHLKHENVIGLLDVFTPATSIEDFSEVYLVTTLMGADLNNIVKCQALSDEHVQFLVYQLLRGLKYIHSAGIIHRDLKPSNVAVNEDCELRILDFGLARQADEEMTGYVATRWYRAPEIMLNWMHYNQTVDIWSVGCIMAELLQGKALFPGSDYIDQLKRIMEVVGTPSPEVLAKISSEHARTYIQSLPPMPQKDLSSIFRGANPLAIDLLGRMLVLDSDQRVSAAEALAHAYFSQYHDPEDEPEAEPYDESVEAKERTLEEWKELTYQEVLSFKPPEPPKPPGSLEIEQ
The method in brief: as §1

For test [4], the target named is T4, PKCd (Homo sapiens, UniProt Q05655).
T4 construct: purchased Reaction Biology Corp
T4 sequence (Q05655 whole entry): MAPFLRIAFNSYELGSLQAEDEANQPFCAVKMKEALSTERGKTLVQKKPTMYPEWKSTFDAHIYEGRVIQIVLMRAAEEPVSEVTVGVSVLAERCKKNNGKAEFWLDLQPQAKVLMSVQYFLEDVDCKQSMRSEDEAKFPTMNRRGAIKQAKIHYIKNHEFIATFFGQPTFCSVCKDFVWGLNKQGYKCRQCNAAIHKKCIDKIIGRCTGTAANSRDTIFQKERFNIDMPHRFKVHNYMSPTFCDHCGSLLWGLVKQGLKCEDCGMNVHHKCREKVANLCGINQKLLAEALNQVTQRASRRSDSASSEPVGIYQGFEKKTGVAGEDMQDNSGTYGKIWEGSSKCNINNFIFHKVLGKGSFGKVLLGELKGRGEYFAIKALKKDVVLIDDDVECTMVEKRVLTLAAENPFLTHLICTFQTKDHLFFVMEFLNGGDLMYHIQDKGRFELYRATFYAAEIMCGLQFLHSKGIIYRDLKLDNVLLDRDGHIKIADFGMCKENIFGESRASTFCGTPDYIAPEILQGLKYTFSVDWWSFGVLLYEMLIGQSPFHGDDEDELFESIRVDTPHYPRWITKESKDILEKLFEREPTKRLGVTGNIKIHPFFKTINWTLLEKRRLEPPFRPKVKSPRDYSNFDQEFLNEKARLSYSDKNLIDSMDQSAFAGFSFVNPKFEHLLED
The method in brief: as §1

Test [5] concerns the target T5, TESK1 (Homo sapiens, UniProt Q15569).
T5 construct: purchased Reaction Biology Corp
The essentials:
as §1

Test [6] addresses T6, TGFBR2 (Homo sapiens, UniProt P37173).
T6 construct: purchased Reaction Biology Corp
The essentials: as §1

The mark [7] stands for this setting: read-out: % Enzyme Activity (relative to DMSO controls) Run 1.
[8] abbreviates: read-out: % Enzyme Activity (relative to DMSO controls) Run 2.

Structures are written as SMILES. Like-named read-outs stand apart in the source and are kept apart here.

T2 sequence (P08069 31-1367): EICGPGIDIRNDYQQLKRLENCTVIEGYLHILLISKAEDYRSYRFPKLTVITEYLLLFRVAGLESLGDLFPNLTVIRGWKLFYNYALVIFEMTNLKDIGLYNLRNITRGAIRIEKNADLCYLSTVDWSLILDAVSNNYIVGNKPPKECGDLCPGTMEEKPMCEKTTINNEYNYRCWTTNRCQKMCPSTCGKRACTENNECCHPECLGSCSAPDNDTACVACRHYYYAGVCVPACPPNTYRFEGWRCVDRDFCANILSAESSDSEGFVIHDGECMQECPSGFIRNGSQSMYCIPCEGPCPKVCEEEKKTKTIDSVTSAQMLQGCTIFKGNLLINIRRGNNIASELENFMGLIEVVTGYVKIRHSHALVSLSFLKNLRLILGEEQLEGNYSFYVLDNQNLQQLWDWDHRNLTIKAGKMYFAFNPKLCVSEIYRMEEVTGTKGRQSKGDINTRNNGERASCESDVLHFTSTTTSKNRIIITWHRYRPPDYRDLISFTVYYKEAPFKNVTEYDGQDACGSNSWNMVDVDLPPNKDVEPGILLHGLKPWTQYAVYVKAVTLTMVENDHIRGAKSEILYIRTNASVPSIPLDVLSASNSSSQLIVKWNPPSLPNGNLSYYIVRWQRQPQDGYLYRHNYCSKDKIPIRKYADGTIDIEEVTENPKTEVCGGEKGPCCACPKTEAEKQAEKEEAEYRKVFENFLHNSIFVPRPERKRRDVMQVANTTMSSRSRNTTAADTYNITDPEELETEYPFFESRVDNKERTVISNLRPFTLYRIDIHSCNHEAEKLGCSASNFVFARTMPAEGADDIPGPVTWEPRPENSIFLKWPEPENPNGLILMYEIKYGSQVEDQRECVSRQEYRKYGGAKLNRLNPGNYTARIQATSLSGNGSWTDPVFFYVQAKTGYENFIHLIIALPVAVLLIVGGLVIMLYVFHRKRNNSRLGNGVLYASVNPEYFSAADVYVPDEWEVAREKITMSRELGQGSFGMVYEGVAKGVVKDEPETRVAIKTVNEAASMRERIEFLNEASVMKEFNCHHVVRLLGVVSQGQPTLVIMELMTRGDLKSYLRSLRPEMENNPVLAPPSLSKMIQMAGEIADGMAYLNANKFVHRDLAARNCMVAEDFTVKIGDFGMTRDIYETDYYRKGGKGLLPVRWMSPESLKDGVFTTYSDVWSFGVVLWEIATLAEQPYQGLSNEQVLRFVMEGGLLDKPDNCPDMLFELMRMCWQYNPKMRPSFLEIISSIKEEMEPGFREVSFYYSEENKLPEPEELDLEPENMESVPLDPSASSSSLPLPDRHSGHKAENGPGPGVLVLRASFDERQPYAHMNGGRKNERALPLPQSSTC
T5 sequence (Q15569 whole entry): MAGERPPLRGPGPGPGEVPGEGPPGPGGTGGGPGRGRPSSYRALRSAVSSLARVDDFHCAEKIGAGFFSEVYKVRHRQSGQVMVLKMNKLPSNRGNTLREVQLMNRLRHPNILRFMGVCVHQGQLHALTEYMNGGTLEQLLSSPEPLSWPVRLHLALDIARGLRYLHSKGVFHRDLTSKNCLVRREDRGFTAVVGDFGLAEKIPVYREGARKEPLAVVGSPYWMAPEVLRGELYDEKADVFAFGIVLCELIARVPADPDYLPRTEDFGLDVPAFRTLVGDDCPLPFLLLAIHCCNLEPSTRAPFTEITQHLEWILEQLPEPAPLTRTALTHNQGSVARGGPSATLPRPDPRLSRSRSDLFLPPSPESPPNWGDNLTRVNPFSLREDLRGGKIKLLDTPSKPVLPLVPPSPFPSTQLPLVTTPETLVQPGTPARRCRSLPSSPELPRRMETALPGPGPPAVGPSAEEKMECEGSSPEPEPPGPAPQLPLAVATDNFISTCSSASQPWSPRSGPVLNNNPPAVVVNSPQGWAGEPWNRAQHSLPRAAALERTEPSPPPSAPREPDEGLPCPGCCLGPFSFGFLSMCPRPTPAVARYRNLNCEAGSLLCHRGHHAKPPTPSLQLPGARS
T6 sequence (P37173 23-567): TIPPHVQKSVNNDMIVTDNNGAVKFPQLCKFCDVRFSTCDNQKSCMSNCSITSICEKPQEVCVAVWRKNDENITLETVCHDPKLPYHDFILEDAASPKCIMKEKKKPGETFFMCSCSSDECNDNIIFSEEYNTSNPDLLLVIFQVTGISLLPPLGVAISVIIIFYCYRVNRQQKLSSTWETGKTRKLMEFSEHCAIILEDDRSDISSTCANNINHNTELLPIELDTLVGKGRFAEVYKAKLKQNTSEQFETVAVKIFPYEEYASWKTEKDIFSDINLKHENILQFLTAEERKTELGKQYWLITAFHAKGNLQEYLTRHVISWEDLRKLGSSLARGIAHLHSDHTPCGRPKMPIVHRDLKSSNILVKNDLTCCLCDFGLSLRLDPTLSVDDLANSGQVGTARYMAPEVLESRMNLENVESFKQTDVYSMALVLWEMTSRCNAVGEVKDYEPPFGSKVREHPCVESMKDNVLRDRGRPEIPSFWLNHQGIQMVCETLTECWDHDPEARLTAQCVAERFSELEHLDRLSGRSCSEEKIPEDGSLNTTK

Consider `C=CC(=O)Nc1cccc(Nc2nc(Nc3ccc(OCCOC)c(F)c3)ncc2F)c1` [Compound 2], for which the inhibition at 3 µM in test [1] was -1.62%; in test [2], 15.6%; in test [3], -1.41%; in test [4] it was 1.78%; in test [5], 2.13%; in test [6], -0.19%. Moreover, the remaining activity at 3 µM in test [1] (setting [7]) was 101%; in test [1] (setting [8]), 102%; in test [2] (setting [7]) it was 82.8%; in test [2] (setting [8]), 86%; in test [3] (setting [7]), 102%; in test [3] (setting [8]), 101%. Moreover, the remaining activity at 3 µM was found to be 100% in test [4] (setting [7]); 96% in test [4] (setting [8]); 97.2% in test [5] (setting [7]); 98.5% in test [5] (setting [8]); 98.1% in test [6] (setting [7]); 102% in test [6] (setting [8]).
